Assay type in all cases: in vivo, mouse
Experiment [1] relates to MRL/lpr mice. The experiment is described as follows: Antibody secreting B-cell Elispot (anti-Smith Ag, anti-dsDNA, anti-chromatin ASC), spleens of MRL/lpr mice. The protocol:
FIG. 9 depicts frequency of anti-Smith antigen and anti-dsDNA antibody secreting cells in the spleens of MRL/lpr mice. MRL/lpr treated mice spleens were processed for splenocytes for ex vivo Elispot assays. Elispot wells were coated with 10 μg/mL of smith antigen, dsDNA or ovalbumin protein. Fresh, whole splenocytes were added to each well at 500,000 cells per well in cell culture medium. Cells were incubated overnight at 37° C. Developed wells provided spots that were counted as frequency of ASCs per million splenocytes.
FIG. 10 depicts the frequency of anti-chromatin antibody secreting cells in the spleens of MRL/lpr mice. MRL/lpr treated mice spleens were processed for splenocytes for ex vivo Elispot assays. Elispot wells were coated with 10 μg/mL of boiled chicken chromatin or ovalbumin protein. Fresh, whole splenocytes were added to each well at […] cells per well in cell culture medium. Cells were incubated overnight at 37° C. Developed wells provided spots that were counted as frequency of ASCs per million splenocytes.
B-cell Elispot components are ordered from MabTech (Nacka Strand, Sweden) and nitrocellulose IP filter plates are ordered from Millipore (Billerica, Mass.). Elispot wells are coated with either purified bovine thymus dsDNA (Sigma), purified bovine Smith antigen (GenWay) or boiled filtered purified chicken chromatin from lysed chicken red blood cells (Rockland, Gilbertsville, Pa.) at 10 μg/mL. Spleens are processed using glass homogenization, filtered through a 60 μm sterile cell strainer and red blood cells (RBCs) lysed using BioLegend (San Diego, Calif.) lysis buffer. Processed splenocytes are added to each well in culture medium. To avoid skewing of true ex vivo frequencies of antibody secreting cell types (ASCs), cells are not stimulated with a polyclonal mitogen like LPS, but rather incubated in media alone to allow monitoring of genuine ex vivo antibody release. Anti-mouse pan-IgG is used as a positive control for total IgG producing ASCs and is used to normalize results. Frequencies for each antigen are identified in an initial test phase for each model. For chromatin and total IgG only, 30,000 splenocytes are added to each well; for Smith antigen and dsDNA, 500,000 cells are added to each well. Different numbers of splenocytes are added for different antigens due to saturation limits of spot frequencies per well. These limits are previously established. B-cell Elispots are incubated overnight at 37° C. To develop each assay, secondary antibody is added to each well, incubated, washed and alkaline phosphatase strepavidin is used as the conjugate; substrate used is BCIP-NBT. Plates are developed until spots are visible. All Elispot analyses are performed using an Immunospot C.T.L. scanner and Biospot software (Cellular Technology Ltd., Shaker Heights, Ohio). Results are shown as values from which media and cells only wells are subtracted. Some values are negative due to high background.

Another experiment concerns NZM mice. The experiment is described as follows: Antinuclear antibody (ANA) ELISA (anti-chromatin, anti-Smith Ag, anti-dsDNA), serum of NZM mice (Example 2). A general note: ELISA stands for enzyme-linked immunosorbent assay.
Experiment [2] relates to MRL/lpr mice. Put plainly: Luminex analysis of serum cytokines (IL-12p40/p70, IL-1β, TNFα), MRL/lpr mice. How it is done: For the processing of serum samples for cytokine analysis, frozen plasma at −80° C. is thawed on ice, vortexed, and centrifuged for 10 minutes to remove debris and aggregates. A total of 25-50 μL of serum is used for Luminex® assays following the manufacturer's instructions. Ten different mouse cytokines are measured using the mouse cytokine 10-plex bead kit (Invitrogen, Carlsbad, Calif., no. LMC0001). Briefly, filter plates (Millipore, Billerica, Mass., no. MAIPSWU10), are pre-wet with 200 μL of wash solution (kit component) and 25 μL of beads are added per well. Serum samples are diluted and a total volume of 50 μL is added per well (ie, 25 μL of sample serum plus 25 μL of assay diluent as provided by the manufacturer). Plates with beads are incubated for 2 hours at room temperature (RT) on an orbital shaker in the dark. At the end of the incubation, plate(s) are washed twice in kit buffer, secondary biotinylated antibody is added at a 1:10 dilution (100 μL) in biotin diluent provided with the kit. Plates are incubated at RT for 1 hour in the dark then washed twice in kit buffer. Strepavidin in assay diluent is added at 100 μL per well, then incubated for 30 minutes at RT in the dark. The plates are washed 3 times then 100 μL of kit wash solution is added and agitated for 2-3 minutes at RT in the dark. Plates are run immediately following this incubation period on a Luminex xMAP 200 unit with data acquisition and analysis software (Invitrogen, San Diego, Calif., no. MAP0200). All bead washing is performed using a vacuum manifold unit (Pall, Ann Arbor, Mich. no. 5017). For all cytokine Luminex assays, values below the limit of detection set by the lowest point along the standard or set by the manufacturer are considered out of range and are not estimated, but assumed the lowest point along the standard curve for that particular assay.
Mice are tracked on an individual basis.
Vehicle alone is provided orally twice weekly (p.o.). Both proteasome inhibitors are suspended in the vehicle solution. […] In addition, urine proteinuria is determined for all animals.
Vehicle was 3% DMSO/10% Solutol/87% PBS.

With `C[C@@H]1C[C@H]2[C@@H]3CCC4=CC(=O)C=C[C@]4(C)[C@@]3(F)[C@@H](O)C[C@]2(C)[C@@]1(O)C(=O)CO` [dexamethasone, Dexamethasone, reference compound], in the experiment on MRL/lpr mice [1] (G6: 1.5 mg/kg ip, 3× wk), the “ASC EOS Smith Ag, percent change vs vehicle” value is “+40%”; the “ASC EOS chromatin, percent change vs vehicle” value was −22%; the “ASC EOS dsDNA, percent change vs vehicle” value is on record as “+129%”. In the experiment on NZM mice (G5 1.5 mg/kg ip, 3× wk), the “ANA Smith Ag AUC, percent change vs vehicle” value is −56%; the “ANA chromatin AUC, percent change vs vehicle” value is on record as −8%; the “ANA dsDNA AUC, percent change vs vehicle” value was −19%. In the experiment with MRL/lpr mice [2] (G6: 1.5 mg/kg ip, 3× wk), the “Cytokine AUC serum IL-1β, percent change vs vehicle” value was −44%; the “Cytokine AUC serum IL-12, percent change vs vehicle” value is −74%; the “Cytokine AUC serum TNFα, percent change vs vehicle” value was −87%.
With `CC(C)C[C@H](NC(=O)[C@H](Cc1ccccc1)NC(=O)c1cnccn1)B(O)O` [bortezomib, reference compound], in the experiment on MRL/lpr mice [1] (G4: 0.5 mg/kg iv, 1× wk), the “ASC EOS Smith Ag, percent change vs vehicle” value is −74%; the “ASC EOS chromatin, percent change vs vehicle” value is −64%; the “ASC EOS dsDNA, percent change vs vehicle” value is listed as −58%. Also, in the experiment on MRL/lpr mice [1] (G5: 0.3 mg/kg iv, 2× wk), the “ASC EOS Smith Ag, percent change vs vehicle” value is given as “+73%”; the “ASC EOS chromatin, percent change vs vehicle” value is “+5%”; the “ASC EOS dsDNA, percent change vs vehicle” value is “+219%”. Also, in the experiment with NZM mice (G3 0.3 mg/kg ip, 1× wk), the “ANA Smith Ag AUC, percent change vs vehicle” value is −22%; the “ANA chromatin AUC, percent change vs vehicle” value is 113%; the “ANA dsDNA AUC, percent change vs vehicle” value is 95%. In the experiment on NZM mice (G4 0.3 mg/kg ip, 2× wk), the “ANA Smith Ag AUC, percent change vs vehicle” value is −53%; the “ANA chromatin AUC, percent change vs vehicle” value is on record as −22%; the “ANA dsDNA AUC, percent change vs vehicle” value was −2%. Besides, in the experiment on NZM mice (bortezomib, Dex or CTX treatment groups), the “reduction in anti-chromatin Ab relative to vehicle, significance” value is “none of which was significant”. Besides, the “serum anti-dsDNA Ab increase vs vehicle” value with NZM mice (once weekly bortezomib) stood at 95%. The “serum anti-Smith Ag Ab decrease vs vehicle” value in the experiment with NZM mice (once weekly bortezomib (0.3 mg/kg ip)) came to 22%. For the same compound, the “serum anti-dsDNA Ab decrease vs vehicle” value with NZM mice (twice weekly bortezomib) stood at 2%. The “serum anti-chromatin Ab decrease vs vehicle” value with NZM mice (twice weekly bortezomib (0.3 mg/kg ip)) is 22%. In addition, in the experiment on MRL/lpr mice [2] (G4: 0.5 mg/kg iv, 1× wk), the “Cytokine AUC serum IL-1β, percent change vs vehicle” value is on record as −46%; the “Cytokine AUC serum IL-12, percent change vs vehicle” value is given as −54%; the “Cytokine AUC serum TNFα, percent change vs vehicle” value was −64%. In the experiment on MRL/lpr mice [2] (G5: 0.3 mg/kg iv, 2× wk), the “Cytokine AUC serum IL-1β, percent change vs vehicle” value is reported as −51%; the “Cytokine AUC serum IL-12, percent change vs vehicle” value is on record as −54%; the “Cytokine AUC serum TNFα, percent change vs vehicle” value is recorded as −71%.
Take `CC(C)C[C@H](NC(=O)[C@@H](NC(=O)c1cccc(-c2ccccc2)n1)[C@@H](C)O)B(O)O` [COMPOUND A, [(1R)-1-[[(2S,3R)-3-hydroxy-2-[6-phenyl-pyridine-2-carbonyl)amino]-1-oxobutyl]amino]-3-methylbutylboronic acid]: the “ASC EOS Smith Ag, percent change vs vehicle” value in the experiment on MRL/lpr mice [1] (G1: 3 mg/kg iv, 1× wk) is on record as −97%; in the experiment with MRL/lpr mice [1] (G2: 3 mg/kg iv, 2× wk), −110%; with MRL/lpr mice [1] (G3: 10 mg/kg po, 2× wk), −86%. For the same compound, the “ASC EOS chromatin, percent change vs vehicle” value in the experiment on MRL/lpr mice [1] (G1: 3 mg/kg iv, 1× wk) is −89%; in the experiment with MRL/lpr mice [1] (G2: 3 mg/kg iv, 2× wk), −98%; in the experiment with MRL/lpr mice [1] (G3: 10 mg/kg po, 2× wk), −79%. Moreover, the “ASC EOS dsDNA, percent change vs vehicle” value is listed as −80% in the experiment with MRL/lpr mice [1] (G1: 3 mg/kg iv, 1× wk); −84% in the experiment with MRL/lpr mice [1] (G2: 3 mg/kg iv, 2× wk); −82% in the experiment with MRL/lpr mice [1] (G3: 10 mg/kg po, 2× wk). In addition, the “anti-Smith Ag IgG ASC frequency decrease vs vehicle” value in the experiment with MRL/lpr mice [1] (Group 1) was found to be 97%; with MRL/lpr mice [1] (Group 2) it was 100%; with MRL/lpr mice [1] (Group 3), 86%. The “anti-dsDNA IgG ASC frequency decrease vs vehicle” value in the experiment on MRL/lpr mice [1] (Group 1) is given as 80%; in the experiment on MRL/lpr mice [1] (Group 2), 84%; in the experiment with MRL/lpr mice [1] (Group 3), 82%. Besides, the “ANA Smith Ag AUC, percent change vs vehicle” value in the experiment on NZM mice (G1 3 mg/kg ip, 1× wk) is recorded as −88%; with NZM mice (G2 3 mg/kg ip, 2× wk), 8%. In addition, the “ANA chromatin AUC, percent change vs vehicle” value with NZM mice (G1 3 mg/kg ip, 1× wk) is recorded as −63%; with NZM mice (G2 3 mg/kg ip, 2× wk) it was −79%. The “ANA dsDNA AUC, percent change vs vehicle” value is reported as −21% in the experiment with NZM mice (G1 3 mg/kg ip, 1× wk) and −68% in the experiment on NZM mice (G2 3 mg/kg ip, 2× wk). Also, the figures for the “serum anti-dsDNA Ab decrease vs vehicle” value in the experiment on NZM mice (once weekly COMPOUND A) and with NZM mice (twice weekly COMPOUND A) were 21% and 68%, respectively. Also, the “serum anti-Smith Ag Ab decrease vs vehicle” value in the experiment on NZM mice (once weekly COMPOUND A (3 mg/kg ip)) stood at 88%. The “serum anti-chromatin Ab decrease vs vehicle” value is on record as 79% in the experiment on NZM mice (twice weekly (3 mg/kg ip)) and 63% with NZM mice (weekly (3 mg/kg ip)). Besides, the “serum IL-1β by EOS” value with MRL/lpr mice [2] (3 mg/kg twice weekly, vehicle 16.8 pg/mL) was 5.7 pg/mL. In addition, the “Cytokine AUC serum IL-1β, percent change vs vehicle” value is −56% in the experiment on MRL/lpr mice [2] (G1: 3 mg/kg iv, 1× wk); −61% in the experiment on MRL/lpr mice [2] (G2: 3 mg/kg iv, 2× wk); −58% in the experiment with MRL/lpr mice [2] (G3: 10 mg/kg po, 2× wk). For the same compound, the “Cytokine AUC serum IL-12, percent change vs vehicle” value is on record as −48% in the experiment with MRL/lpr mice [2] (G1: 3 mg/kg iv, 1× wk); −72% with MRL/lpr mice [2] (G2: 3 mg/kg iv, 2× wk); −62% in the experiment on MRL/lpr mice [2] (G3: 10 mg/kg po, 2× wk). The “Cytokine AUC serum TNFα, percent change vs vehicle” value in the experiment with MRL/lpr mice [2] (G1: 3 mg/kg iv, 1× wk) was −62%; in the experiment on MRL/lpr mice [2] (G2: 3 mg/kg iv, 2× wk), −79%; in the experiment on MRL/lpr mice [2] (G3: 10 mg/kg po, 2× wk), −71%.

(Values after patent US9340559B2, “Proteasome inhibitor delanzomib for use in the treatment of lupus” (Cephalon, Inc., priority 2011, dated 2016).)
